The record followed here is ChEMBL document CHEMBL1201862, “PubChem BioAssay data set” (2004).

What all share (test): DTP human tumour cell line panel, 48 h
Assay [1] deals with ACHN.
Assay [2] deals with HOP-92.
Assay [3] relates to 786-0.
Assay [4] concerns COLO 205.
Assay [5] relates to A549.
The test system of assay [6] is SK-OV-3.
In assay [7] the test system is SN12C.
For assay [8], the system named is RPMI-8226.
Assay [9] concerns NCI-H522.
For assay [10], the system named is EKVX.
The test system of assay [11] is SK-MEL-28.
In assay [12] the test system is SF-295.
The subject of assay [13] is M14.
The test system of assay [14] is HCC 2998.
In assay [15] the test system is SNB-75.
Assay [16] relates to LOX IMVI.
In assay [17] the test system is CAKI-1.
Assay [18] relates to RXF 393.
Assay [19] relates to MDA-MB-435.

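How tested: cells in 96-well plates exposed to compound for 48 hours at five concentrations. At the GI50, growth is halved.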 The source made the active and inactive calls. Cut-off read from the data, not from the text of the source: active = GI50 up to about 1.1 µM and inactive = higher. Bounds are passed on as bounds.

On to `COc1ccc(SS(=O)(=O)c2ccc(OC)cc2)cc1`, for which the GI50 was 18.4 µM (inactive) in [1]; 35.9 µM (inactive) in assay [2]; 17.2 µM (inactive) in [3]; 17.9 µM (inactive) in assay [4]; 24.4 µM (inactive) in assay [5]; 34.2 µM (inactive) in assay [6]. The GI50 in [7] is 20.3 µM (inactive); in [8], 27.5 µM (inactive); in assay [9] it was 15.3 µM (inactive); in [10], 21.1 µM (inactive); in [11], 19.6 µM (inactive); in assay [12], 19.5 µM (inactive). Also, the GI50 in assay [13] is 20 µM (inactive); in [14], 13.6 µM (inactive); in assay [15], 23.2 µM (inactive); in assay [16] it was 17.5 µM (inactive); in assay [17], 22.5 µM (inactive); in assay [18] it was 18.1 µM (inactive).

For `Cn1c(=O)n(C2(C)CSC2)c2ccccc21`, the GI50 in assay [1], in assay [2], in assay [3], in assay [4], in [5] and in assay [6] was > 100 µM (inactive) throughout. For the same molecule, the GI50 in [7], in assay [8], in assay [9], in assay [10], in assay [11] and in assay [12] was > 100 µM (inactive) in each case. Moreover, the GI50 in assay [13], in assay [14], in assay [15], in assay [16], in assay [17] and in assay [18] was > 100 µM (inactive) throughout.

`CN(C)CCn1cnc2ncccc2c1=O`: the GI50 in assay [1], in assay [2], in assay [3], in [4], in [5] and in assay [6] was > 100 µM (inactive) throughout. Moreover, the GI50 in assay [7], in assay [9], in assay [10], in assay [11], in [12] and in [13] was > 100 µM (inactive) each time. Also, the GI50 in [14], in assay [15], in [16], in assay [17] and in assay [18] was > 100 µM (inactive) throughout.

As for `CC(OC(C)(C)C)[C@H](NC(=O)OC(C)(C)C)C(=O)O` (stereo not given in full), the GI50 in assay [1], in assay [2], in assay [3], in assay [4], in assay [5] and in assay [6] was > 100 µM (inactive) throughout. The GI50 is > 100 µM (inactive) in [7]; > 100 µM (inactive) in [8]; > 100 µM (inactive) in [9]; > 100 µM (inactive) in assay [10]; > 10 µM (inactive) in assay [11]; > 100 µM (inactive) in assay [12]. For the same molecule, the GI50 in assay [13] was > 100 µM (inactive); in assay [14], > 100 µM (inactive); in [19] it was > 100 µM (inactive); in [16], > 100 µM (inactive); in assay [17] it was > 100 µM (inactive); in assay [18] it was > 10 µM (inactive).

As for `CC(=O)Oc1ccc2c(c1)C(=O)c1nc(C)c(C)nc1C2=O`, the GI50 is 48.4 µM (inactive) in assay [1]; > 87.1 µM (inactive) in [2]; 37.2 µM (inactive) in assay [3]; 50 µM (inactive) in assay [4]; 43.7 µM (inactive) in assay [5]; 71.8 µM (inactive) in assay [6]. For the same molecule, the GI50 was 46.5 µM (inactive) in assay [7]; 39.8 µM (inactive) in [8]; 50.6 µM (inactive) in assay [9]; > 48.6 µM (inactive) in assay [10]; 46.1 µM (inactive) in [11]; 49.9 µM (inactive) in assay [12]. In addition, the GI50 is 38.1 µM (inactive) in assay [13]; 21.4 µM (inactive) in [14]; 80.4 µM (inactive) in assay [15]; 39.4 µM (inactive) in [16]; > 76.6 µM (inactive) in [17]; 31.8 µM (inactive) in assay [18].

`O=[N+]([O-])c1ccc(Cl)c(C2SCc3nc4ccccc4n32)c1` (stereo not given): the GI50 in assay [1] was 44.9 µM (inactive); in assay [2], 16.1 µM (inactive); in [3], 72.3 µM (inactive); in [4], 37.6 µM (inactive); in assay [5], 44.9 µM (inactive); in assay [6] it was 36.6 µM (inactive). Further, the GI50 in assay [7] was 43.6 µM (inactive); in assay [8], 31.2 µM (inactive); in assay [9], 22.3 µM (inactive); in assay [10], 42.4 µM (inactive); in assay [11], 40.6 µM (inactive); in assay [12], 32.6 µM (inactive). Besides, the GI50 in assay [14] is 71.4 µM (inactive); in assay [15], 24.9 µM (inactive); in assay [17], 20.1 µM (inactive); in [18], 33 µM (inactive).

`CC(c1ccc2c(c1)CCC1C2CC2OC23CC=CC(=O)[C@]13C)C1C[C@]2(C)O[C@]2(C)[C@H](O)O1` (stereo not given in full): the GI50 in assay [1] was 33.7 µM (inactive); in [2], 92.9 µM (inactive); in assay [3], > 100 µM (inactive); in [4], 71.9 µM (inactive); in assay [5] it was 16.1 µM (inactive); in assay [6], > 100 µM (inactive). For the same molecule, the GI50 in assay [7] is > 100 µM (inactive); in assay [8], 2 µM (inactive); in assay [9], 14 µM (inactive); in assay [10] it was 5.48 µM (inactive); in assay [11] it was 50.8 µM (inactive); in [13] it was 10.7 µM (inactive). Moreover, the GI50 in [14] was 83.4 µM (inactive); in [15], 58.9 µM (inactive); in assay [16] it was 20.1 µM (inactive); in assay [17], 7.64 µM (inactive); in [18], 11.7 µM (inactive).

As for `COc1cc2c(/C=C3/C(=O)Nc4cc(C)c(O)cc43)c(Cl)[nH]c2cc1C`, the GI50 in assay [1] is 4.37 µM (inactive); in assay [2], 23 µM (inactive); in assay [3], 2.59 µM (inactive); in assay [4] it was 2.03 µM (inactive); in [5] it was 4.01 µM (inactive); in assay [6], 2.1 µM (inactive). Besides, the GI50 was 2.4 µM (inactive) in assay [7]; 1.75 µM (inactive) in [8]; 2.98 µM (inactive) in [9]; 4.91 µM (inactive) in assay [11]; 1.52 µM (inactive) in [12]; 1.86 µM (inactive) in [13]. For the same molecule, the GI50 in assay [19] is 0.368 µM (active); in [15], 2.05 µM (inactive); in [16], 5.61 µM (inactive); in assay [17], 2.55 µM (inactive); in assay [18], 1.66 µM (inactive).

For `CCN(CC)CCCNc1ccc([N+](=O)[O-])c2nc3ccc(OC)cc3c(N)c12`, the GI50 was > 6.67 µM (inactive) in assay [1]; > 3.65 µM (inactive) in assay [2]; 1.44 µM (inactive) in [3]; 1.34 µM (inactive) in assay [4]; 1.86 µM (inactive) in assay [5]; > 3.92 µM (inactive) in assay [6]. Moreover, the GI50 in [7] is 2.07 µM (inactive); in assay [8], 2 µM (inactive); in assay [9] it was 2.82 µM (inactive); in assay [10], > 10 µM (inactive); in assay [11] it was > 10 µM (inactive); in [12] it was 1.82 µM (inactive). Also, the GI50 in assay [13] was > 4.41 µM (inactive); in [19] it was 1.62 µM (inactive); in [15], 1.93 µM (inactive); in assay [16] it was 1.7 µM (inactive); in assay [17] it was > 10 µM (inactive); in [18] it was > 10 µM (inactive).

Take `S=C1CNC(=S)CN1`: the GI50 in assay [1], in assay [2], in [3], in assay [4], in assay [5] and in assay [6] was > 100 µM (inactive) throughout. Further, the GI50 in [7], in assay [8], in assay [9], in [11], in assay [12] and in assay [13] was > 100 µM (inactive) each time. For the same molecule, the GI50 in [14], in [15], in assay [16], in [17] and in assay [18] was > 100 µM (inactive) in each case.

As for `OC[C@H]1O[C@@H]2O[C@@](COCc3ccccc3)([C@H](OCc3ccccc3)[C@H]2O)[C@@H]1OCc1ccccc1`, the GI50 was 17.3 µM (inactive) in assay [1]; 11.9 µM (inactive) in assay [2]; 17 µM (inactive) in assay [3]; 17.4 µM (inactive) in assay [4]; 14.7 µM (inactive) in assay [5]; 14.8 µM (inactive) in [6]. In addition, the GI50 in assay [7] is 15.7 µM (inactive); in assay [8] it was 13.7 µM (inactive); in [9], 17.3 µM (inactive); in assay [10] it was 14.1 µM (inactive); in assay [12], 15.3 µM (inactive); in [13], 17.6 µM (inactive). The GI50 in assay [19] is 17.3 µM (inactive); in assay [15], 16.2 µM (inactive); in assay [16], 16.7 µM (inactive); in assay [17] it was 15.7 µM (inactive).

By GI50 is commonly meant the concentration at which growth is held to half of that of the control.
